Measured values reported in US12458647B2, “Macrocyclic derivative and use thereof” (Guangzhou Joyo Pharmatech Co., Ltd., priority 2022, dated 2025).

Legend:
[1] = Pharmacokinetics test in mice; format: in vivo, male CD-1 (ICR) mice; conditions: male CD-1 mice
Protocol: The pharmacokinetic behavior of the compounds of the present disclosure was evaluated in male CD-1 (ICR) mice.
The compounds to be tested were dissolved in the vehicle (5% DMSO/10% solutol/85% water). Four male CD-1 mice were divided into 2 groups of 2 mice each. Group 1 mice were administered a single intravenous bolus injection of the compound at a dose of 1 mg/kg. Group 2 mice were administered a single dose of the compound by gavage at a dose of 10 mg/kg. Whole blood samples were collected at 0.083 (intravenous bolus group only), 0.25, 0.5, 1, 2, 4, 8 and 24 hours after dosing. The LC-MS/MS method was used to determine the concentration of the test compound in whole blood samples.

[2] = tested on: p-ERK level in AsPC-1 cells; assay: Detection of p-ERK level in AsPC-1 cells (HTRF); format: cell-based; conditions: 3 hours incubation; read-out: AsPC-1 pERK IC50
Protocol: AsPC-1 cells were purchased from ATCC: RPMI-1640 medium was purchased from Gibco; fetal bovine serum was purchased from Hyclone; Advanced Phospho-ERK1/2(THR202/TYR204) KIT was purchased from Bioauxilium-Advanced Phospho; ERK1/2(THR202/TYR204) KIT components were: Advanced PhosphoERK1/2 Eu Cryptate antibody, Advanced PhosphoERK1/2 d2 antibody, Blocking reagent (stock solution 100×), Lysis buffer #1 (stock solution 4×). Detection buffer (ready-to-use), with a storage temperature of ≤−16° C. for all.
(1) The cells were seeded in a white-bottomed 384-well cell culture plate, 8 μL of cell suspension per well, each well containing 7,500 cells. The cell plate was placed in a carbon dioxide incubator and incubated overnight at 37° C.;
(2) The test compound was diluted with 100% DMSO to 3 mM as the first concentration, and then diluted with a pipette to 10 concentrations of 3,000, 1,000, 300, 100, 30, 10, 3, 1, 0.3 and 0.1 μM. 2 μL of the compound was taken and added to 198 μL of cell starvation medium, mixed well, 15 μl, of compound solution was taken and added to 35 μL of cell starvation medium and mixed well. […]
(5) After incubation, a multilabel plate reader was used to read the HTRF excitation: 320 nm, emission: 615 nm, and 665 nm. […]

GP2D cell line = assay: In vitro cell proliferation experiment (5 days, 3D CellTiter-Glo), GP2D; format: cell-based; conditions: read-out: Inhibitory Activity IC50
Protocol: RPMI 1640 medium, DMEM, Ham's F12 medium, F12K medium, IMDM and penicillin/streptomycin antibiotics were purchased from Gibco, fetal bovine serum was purchased from Hyclone, Envision multilabel plate reader (PerkinElmer). […]
The test compound was diluted by 5-fold to 8 concentrations with a pipette, i.e., from 2 mM to 25.6 nM, and replicate wells were set up for the experiment. […] Another cell plate was prepared, and the signal value was read as the maximum value (the maximum value in the following equation) on the day of dosing for data analysis.
50 μL of cell viability chemiluminescent detection reagent was added to the cell plate and incubated at room temperature for 30 minutes to stabilize the luminescence signal. A multilabel plate reader was used for reading. […]

[3] = intravenous bolus 1 mg/kg, whole blood

bioavailability (F) ([1]; gavage 10 mg/kg vs i.v. 1 mg/kg) [%] | AUC0-last ([1]; gavage 10 mg/kg, whole blood) | time to maximum concentration (τmax) ([1]; gavage 10 mg/kg, whole blood) [h] | apparent volume of distribution at steady state (Vd) [1, 3] [L/kg] | area under the whole blood concentration-time curve (AUC0-last) [1, 3] [µM·h] | elimination half-life (T1/2) [1, 3] [h] | whole blood clearance (C1) [1, 3] [mL/min/kg] | IC50 [2] [nM] | Compound | IC50 (GP2D cell line) [nM]
54.3 | 17,119 h·nmol/mL | 3.0 | 2.18 | 3.160 | 4.29 | 6.29 | – | CCn1c(-c2cc(N3CCN(C)CC3)cnc2C(C)OC)c2c3cc(ccc31)-c1csc(n1)CC(NC(=O)C1CC1C)C(=O)N1NC(C(=O)OCC(C)(C)C2)C2CC1C2 (single isomer, unassigned) [Compound 7A] | –
– | – | – | – | – | – | – | 0.3 | CCn1c(-c2cc(N3CCN(C)CC3)cnc2C(C)OC)c2c3cc(ccc31)-c1csc(n1)CC(NC(=O)C1C(C)C1C)C(=O)N1NC(C(=O)OCC(C)(C)C2)C2CC1C2 (single isomer, unassigned) [Compound 6A] | 0.9
